# Experimental data taken from patent publication US20260256769A1, “ARTERIOSCLEROSIS SUPPRESSION THROUGH INHIBITION OF TRANSCRIPTION FACTOR FoxO1” (TEIKYO UNIVERSITY, priority 2022, published 2026).
# Tests used:
# [1] = test system: bone marrow monocytes; assay: CD11c expression in bone marrow monocytes by real-time PCR after intraperitoneal administration; format: in vivo; settings: wild-type mice, 20 mg/kg intraperitoneally for 2 weeks, vs DMSO-treated group
# Description: (§1) In this Example, the following experiment was carried out. First, the FoxO1 inhibitor AS1842856 (20 mg/kg) was intraperitoneally administered to Syk gene-deficient mice (Syk^del/del) and wild-type mice (Syk^+/+) for 2 weeks. The expression of CD11c in collected bone marrow monocytes was measured by real-time PCR, and the CD11c expression (%) in peripheral blood monocytes (CD115 positive cells) was measured by flow cytometry. CD115 is a monocyte marker.
# [2] = test system: atherosclerosis lesions in the aortic sinus; assay: Atherosclerosis lesions in the aortic sinus evaluated using HE staining; format: in vivo; settings: wild-type mice (Syk+/+), 20 mg/kg intraperitoneally for 8 weeks, vs DMSO-treated group
# Description: Next, after the FoxO1 inhibitor AS1842856 (20 mg/kg) was intraperitoneally administered to wild-type mice (Syk^+/+) for 8 weeks, atherosclerosis lesions in the aortic sinus were evaluated using HE staining.
# [3] = test system: bone marrow-derived macrophages; assay: CD11c on the cell surface of bone marrow-derived macrophages by flow cytometry; format: cell-based, mice; settings: vs DMSO-treated control group
# Description: Next, we assumed that the transcription factor that binds to the nucleotide sequence of the determined region as above was FoxO1, and a FoxO1 inhibitor AS1842856 was administered to the bone marrow-derived macrophages respectively collected from Syk gene-deficient mice (Syk^del/del) and wild-type mice (Syk^+/+), and CD11c on the cell surface was measured by flow cytometry.
# [4] = test system: peripheral blood monocytes (CD115 positive cells); assay: CD11c expression (%) in peripheral blood monocytes (CD115 positive cells) by flow cytometry after intraperitoneal administration; format: in vivo; settings: wild-type mice, 20 mg/kg intraperitoneally for 2 weeks, vs DMSO-treated group
# Description: as §1
compound,measurement,setting,value
"CCn1cc(C(=O)O)c(=O)c2c(N)c(F)c(NC3CCCCC3)cc21 [AS1842856, 5-amino-7-(cyclohexylamino)-1-ethyl-6-fluoro-4-oxo-1,4-dihydroquinoline-3-carboxylic acid]",CD11c expression in bone marrow monocytes,[1],significantly decreased
same,atherosclerosis lesions in the aortic sinus,[2],Atherosclerosis was suppressed
same,expression of CD11c on the cell surface,[3]; bone marrow-derived macrophages from Syk gene-deficient mice (Syk del/del),no significant difference
same,expression of CD11c on the cell surface,[3]; bone marrow-derived macrophages from wild-type mice (Syk+/+),significantly decreased
same,CD11c/CD115 ratio in peripheral blood monocytes,[4],significantly decreased
